The target in the assay is Prothrombin (Homo sapiens) (UniProt P00734). As to the kind of experiment: Relative prothrombin time was determined as the activity of the test ODN (oligodeoxynucleotide) relative to that of GS-522.
In turn, `Cc1cn([C@H]2C[C@H](OP(=O)(O)OC[C@H]3O[C@@H](n4cnc5c(=O)nc(N)[nH]c54)C[C@@H]3OP(=O)(O)OC[C@H]3O[C@@H](n4cnc5c(=O)[nH]c(=N)[nH]c54)C[C@@H]3OP(=O)(O)OC[C@H]3O[C@@H](n4cc(C)c(=O)[nH]c4=O)C[C@@H]3OP(=O)(O)OC[C@H]3O[C@@H](n4cnc5c(=O)nc(N)[nH]c54)C[C@@H]3OP(=O)(O)OC[C@H]3O[C@@H](n4cc(C)c(=O)[nH]c4=O)C[C@@H]3OP(=O)(O)OC[C@H]3O[C@@H](n4cnc5c(=O)nc(N)[nH]c54)C[C@@H]3OP(=O)(O)OC[C@H]3O[C@@H](n4cnc5c(=O)[nH]c(=N)[nH]c54)C[C@@H]3OP(=O)(O)OC[C@H]3O[C@@H](n4cc(C)c(=O)[nH]c4=O)C[C@@H]3OP(=O)(O)OC[C@H]3O[C@@H](n4cc(C)c(=O)[nH]c4=O)C[C@@H]3OP(=O)(O)OC[C@H]3O[C@@H](n4cnc5c(=O)[nH]c(=N)[nH]c54)C[C@@H]3OCOC[C@H]3O[C@@H](n4cnc5c(=O)nc(N)[nH]c54)C[C@@H]3O)[C@@H](COP(=O)(O)O[C@H]3C[C@H](n4cc(C)c(=O)[nH]c4=O)O[C@@H]3COP(=O)(O)O[C@H]3C[C@H](n4cnc5c(=O)[nH]c(=N)[nH]c54)O[C@@H]3COP(=O)(O)O[C@H]3C[C@H](n4cnc5c(=O)nc(N)[nH]c54)O[C@@H]3COP(=O)(O)O)O2)c(=O)[nH]c1=O` displayed a Relative PT of 0.8.

`Cc1cn([C@H]2C[C@H](OP(=O)(O)OC[C@H]3O[C@@H](n4cnc5c(=O)nc(N)[nH]c54)C[C@@H]3OP(=O)(O)OC[C@H]3O[C@@H](n4cnc5c(=O)[nH]c(=N)[nH]c54)C[C@@H]3OP(=O)(O)OC[C@H]3O[C@@H](n4cc(C)c(=O)[nH]c4=O)C[C@@H]3OP(=O)(O)OC[C@H]3O[C@@H](n4cc(C)c(=O)[nH]c4=O)C[C@@H]3OP(=O)(O)OC[C@H]3O[C@@H](n4cnc5c(=O)[nH]c(=N)[nH]c54)C[C@@H]3OP(=O)(O)OC[C@H]3O[C@@H](n4cnc5c(=O)nc(N)[nH]c54)C[C@@H]3O)[C@@H](COCO[C@H]3C[C@H](n4cnc5c(=O)nc(N)[nH]c54)O[C@@H]3COP(=O)(O)O[C@H]3C[C@H](n4cc(C)c(=O)[nH]c4=O)O[C@@H]3COP(=O)(O)O[C@H]3C[C@H](n4cnc5c(=O)[nH]c(=N)[nH]c54)O[C@@H]3COP(=O)(O)O[C@H]3C[C@H](n4cnc5c(=O)nc(N)[nH]c54)O[C@@H]3COP(=O)(O)O[C@H]3C[C@H](n4cc(C)c(=O)[nH]c4=O)O[C@@H]3COP(=O)(O)O[C@H]3C[C@H](n4cc(C)c(=O)[nH]c4=O)O[C@@H]3COP(=O)(O)O[C@H]3C[C@H](n4cnc5c(=O)nc(N)[nH]c54)O[C@@H]3COP(=O)(O)O[C@H]3C[C@H](n4cnc5c(=O)nc(N)[nH]c54)O[C@@H]3COP(=O)(O)O)O2)c(=O)[nH]c1=O` showed a Relative PT of 1.1.

As to `Cc1cn([C@H]2C[C@H](OP(=O)(O)OC[C@H]3O[C@@H](n4cnc5c(=O)nc(N)[nH]c54)C[C@@H]3OP(=O)(O)OC[C@H]3O[C@@H](n4cnc5c(=O)[nH]c(=N)[nH]c54)C[C@@H]3OP(=O)(O)OC[C@H]3O[C@@H](n4cc(C)c(=O)[nH]c4=O)C[C@@H]3OP(=O)(O)OC[C@H]3O[C@@H](n4cnc5c(=O)[nH]c(=N)[nH]c54)C[C@@H]3OP(=O)(O)OC[C@H]3O[C@@H](n4cc(C)c(=O)[nH]c4=O)C[C@@H]3OP(=O)(O)OC[C@H]3O[C@@H](n4cnc5c(=O)nc(N)[nH]c54)C[C@@H]3OCOC[C@H]3O[C@@H](n4cnc5c(=O)[nH]c(=N)[nH]c54)C[C@@H]3OP(=O)(O)OC[C@H]3O[C@@H](n4cc(C)c(=O)[nH]c4=O)C[C@@H]3OP(=O)(O)OC[C@H]3O[C@@H](n4cc(C)c(=O)[nH]c4=O)C[C@@H]3OP(=O)(O)OC[C@H]3O[C@@H](n4cnc5c(=O)[nH]c(=N)[nH]c54)C[C@@H]3OCOC[C@H]3O[C@@H](n4cnc5c(=O)nc(N)[nH]c54)C[C@@H]3O)[C@@H](COP(=O)(O)O[C@H]3C[C@H](n4cc(C)c(=O)[nH]c4=O)O[C@@H]3COP(=O)(O)O[C@H]3C[C@H](n4cnc5c(=O)nc(N)[nH]c54)O[C@@H]3COP(=O)(O)O[C@H]3C[C@H](n4cnc5c(=O)[nH]c(=N)[nH]c54)O[C@@H]3COP(=O)(O)O)O2)c(=O)[nH]c1=O`, the Relative PT turned out to be 0.8.

In turn, `Cc1cn([C@H]2C[C@H](OP(=O)(O)OC[C@H]3O[C@@H](n4cnc5c(=O)nc(N)[nH]c54)C[C@@H]3OP(=O)(O)OC[C@H]3O[C@@H](n4cnc5c(=O)[nH]c(=N)[nH]c54)C[C@@H]3OP(=O)(O)OC[C@H]3O[C@@H](n4cc(C)c(=O)[nH]c4=O)C[C@@H]3OP(=O)(O)OC[C@H]3O[C@@H](n4cnc5c(=O)[nH]c(=N)[nH]c54)C[C@@H]3OP(=O)(O)OC[C@H]3O[C@@H](n4cc(C)c(=O)[nH]c4=O)C[C@@H]3OP(=O)(O)OC[C@H]3O[C@@H](n4cnc5c(=O)nc(N)[nH]c54)C[C@@H]3OP(=O)(O)OC[C@H]3O[C@@H](n4cnc5c(=O)[nH]c(=N)[nH]c54)C[C@@H]3OP(=O)(O)OC[C@H]3O[C@@H](n4cc(C)c(=O)[nH]c4=O)C[C@@H]3OP(=O)(O)OC[C@H]3O[C@@H](n4cc(C)c(=O)[nH]c4=O)C[C@@H]3OP(=O)(O)OC[C@H]3O[C@@H](n4cnc5c(=O)[nH]c(=N)[nH]c54)C[C@@H]3OCOC[C@H]3O[C@@H](n4cnc5c(=O)nc(N)[nH]c54)C[C@@H]3O)[C@@H](COP(=O)(O)O[C@H]3C[C@H](n4cc(C)c(=O)[nH]c4=O)O[C@@H]3COP(=O)(O)O[C@H]3C[C@H](n4cnc5c(=O)nc(N)[nH]c54)O[C@@H]3COCO[C@H]3C[C@H](n4cnc5c(=O)[nH]c(=N)[nH]c54)O[C@@H]3COP(=O)(O)O)O2)c(=O)[nH]c1=O` gave a Relative PT of 0.7.

`Cc1cn([C@H]2C[C@H](OP(=O)(O)OC[C@H]3O[C@@H](n4cnc5c(=O)[nH]c(=N)[nH]c54)C[C@@H]3OP(=O)(O)OC[C@H]3O[C@@H](n4cc(C)c(=O)[nH]c4=O)C[C@@H]3OP(=O)(O)OC[C@H]3O[C@@H](n4cnc5c(=O)nc(N)[nH]c54)C[C@@H]3OP(=O)(O)OC[C@H]3O[C@@H](n4cnc5c(=O)[nH]c(=N)[nH]c54)C[C@@H]3OP(=O)(O)OC[C@H]3O[C@@H](n4cc(C)c(=O)[nH]c4=O)C[C@@H]3OP(=O)(O)OC[C@H]3O[C@@H](n4cc(C)c(=O)[nH]c4=O)C[C@@H]3OP(=O)(O)OC[C@H]3O[C@@H](n4cnc5c(=O)[nH]c(=N)[nH]c54)C[C@@H]3OP(=O)(O)OC[C@H]3O[C@@H](n4cnc5c(=O)nc(N)[nH]c54)C[C@@H]3O)[C@@H](COCO[C@H]3C[C@H](n4cnc5c(=O)[nH]c(=N)[nH]c54)O[C@@H]3COP(=O)(O)O[C@H]3C[C@H](n4cnc5c(=O)nc(N)[nH]c54)O[C@@H]3COP(=O)(O)O[C@H]3C[C@H](n4cc(C)c(=O)[nH]c4=O)O[C@@H]3COP(=O)(O)O[C@H]3C[C@H](n4cc(C)c(=O)[nH]c4=O)O[C@@H]3COP(=O)(O)O[C@H]3C[C@H](n4cnc5c(=O)nc(N)[nH]c54)O[C@@H]3COP(=O)(O)O[C@H]3C[C@H](n4cnc5c(=O)nc(N)[nH]c54)O[C@@H]3COP(=O)(O)O)O2)c(=O)[nH]c1=O` showed a Relative PT of 0.8.
